Results as given in US20200239530A1, “COMPOUNDS AND METHODS OF MODULATING PROTEIN DEGRADATION” (Vividion Therapeutics, Inc., priority 2017, published 2020).

How the values were obtained:
Assay in all cases: Competitive cysteine profiling, probe competition (Table 2B)
Format in all cases: binding
Q9BX70 = target: T1, Q9BX70 (Homo sapiens, UniProt Q9BX70)
T1 construct: 200 μL of lysate containing 5 mg/ml proteome was treated with 2 μL of 100× compound stock; endogenous in cells
Excerpt: (§1) The following 96-well sample prep protocol was used for sample preparation.

Q9P203 = target: T2, Q9P203 (Homo sapiens, UniProt Q9P203)
T2 construct: 200 μL of lysate containing 5 mg/ml proteome was treated with 2 μL of 100× compound stock; endogenous in cells
T2 sequence (Q9P203 1-1132): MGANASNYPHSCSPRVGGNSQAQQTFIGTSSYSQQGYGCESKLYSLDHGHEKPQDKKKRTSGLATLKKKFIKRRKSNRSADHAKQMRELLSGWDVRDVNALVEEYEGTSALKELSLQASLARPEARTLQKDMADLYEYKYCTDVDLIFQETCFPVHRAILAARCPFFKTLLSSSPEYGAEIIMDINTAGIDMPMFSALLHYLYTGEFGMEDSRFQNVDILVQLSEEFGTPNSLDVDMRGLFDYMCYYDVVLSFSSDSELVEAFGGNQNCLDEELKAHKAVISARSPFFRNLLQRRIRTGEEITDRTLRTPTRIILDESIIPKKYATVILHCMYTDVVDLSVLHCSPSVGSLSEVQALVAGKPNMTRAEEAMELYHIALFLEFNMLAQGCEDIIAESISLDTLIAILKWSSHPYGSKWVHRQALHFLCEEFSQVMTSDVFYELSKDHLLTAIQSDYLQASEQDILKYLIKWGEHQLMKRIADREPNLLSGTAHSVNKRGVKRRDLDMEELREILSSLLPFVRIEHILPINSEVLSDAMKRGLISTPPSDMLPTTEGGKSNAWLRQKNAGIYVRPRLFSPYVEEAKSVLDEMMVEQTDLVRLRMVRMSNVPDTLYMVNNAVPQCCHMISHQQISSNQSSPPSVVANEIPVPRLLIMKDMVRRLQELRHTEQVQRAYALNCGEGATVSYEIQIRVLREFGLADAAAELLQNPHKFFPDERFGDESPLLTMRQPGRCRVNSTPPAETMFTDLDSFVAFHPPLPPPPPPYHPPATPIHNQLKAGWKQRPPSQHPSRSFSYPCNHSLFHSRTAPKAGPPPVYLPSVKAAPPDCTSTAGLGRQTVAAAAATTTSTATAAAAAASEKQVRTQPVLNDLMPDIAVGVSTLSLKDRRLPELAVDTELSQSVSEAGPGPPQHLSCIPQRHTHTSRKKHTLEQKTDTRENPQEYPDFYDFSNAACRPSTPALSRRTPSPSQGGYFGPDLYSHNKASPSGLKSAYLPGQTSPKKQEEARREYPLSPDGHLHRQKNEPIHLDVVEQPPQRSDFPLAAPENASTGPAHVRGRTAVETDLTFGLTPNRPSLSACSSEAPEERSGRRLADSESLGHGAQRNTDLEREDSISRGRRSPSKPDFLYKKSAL
Excerpt: as §1

Q8WXK3 = target: T3, Q8WXK3 (Homo sapiens, UniProt Q8WXK3)
T3 construct: 200 μL of lysate containing 5 mg/ml proteome was treated with 2 μL of 100× compound stock; endogenous in cells
Excerpt: as §1

Q9UJX4 = target: T4, Q9UJX4 (Homo sapiens, UniProt Q9UJX4)
T4 construct: Cells were resuspended in cold PBS on ice and sonicated with a probe sonicator to achieve lysis; endogenous in cells
Excerpt: as §1

Q9P2G1 = target: T5, Q9P2G1 (Homo sapiens, UniProt Q9P2G1)
T5 construct: Cells were resuspended in cold PBS on ice and sonicated with a probe sonicator to achieve lysis; endogenous in cells
T5 sequence (Q9P2G1 1-1089): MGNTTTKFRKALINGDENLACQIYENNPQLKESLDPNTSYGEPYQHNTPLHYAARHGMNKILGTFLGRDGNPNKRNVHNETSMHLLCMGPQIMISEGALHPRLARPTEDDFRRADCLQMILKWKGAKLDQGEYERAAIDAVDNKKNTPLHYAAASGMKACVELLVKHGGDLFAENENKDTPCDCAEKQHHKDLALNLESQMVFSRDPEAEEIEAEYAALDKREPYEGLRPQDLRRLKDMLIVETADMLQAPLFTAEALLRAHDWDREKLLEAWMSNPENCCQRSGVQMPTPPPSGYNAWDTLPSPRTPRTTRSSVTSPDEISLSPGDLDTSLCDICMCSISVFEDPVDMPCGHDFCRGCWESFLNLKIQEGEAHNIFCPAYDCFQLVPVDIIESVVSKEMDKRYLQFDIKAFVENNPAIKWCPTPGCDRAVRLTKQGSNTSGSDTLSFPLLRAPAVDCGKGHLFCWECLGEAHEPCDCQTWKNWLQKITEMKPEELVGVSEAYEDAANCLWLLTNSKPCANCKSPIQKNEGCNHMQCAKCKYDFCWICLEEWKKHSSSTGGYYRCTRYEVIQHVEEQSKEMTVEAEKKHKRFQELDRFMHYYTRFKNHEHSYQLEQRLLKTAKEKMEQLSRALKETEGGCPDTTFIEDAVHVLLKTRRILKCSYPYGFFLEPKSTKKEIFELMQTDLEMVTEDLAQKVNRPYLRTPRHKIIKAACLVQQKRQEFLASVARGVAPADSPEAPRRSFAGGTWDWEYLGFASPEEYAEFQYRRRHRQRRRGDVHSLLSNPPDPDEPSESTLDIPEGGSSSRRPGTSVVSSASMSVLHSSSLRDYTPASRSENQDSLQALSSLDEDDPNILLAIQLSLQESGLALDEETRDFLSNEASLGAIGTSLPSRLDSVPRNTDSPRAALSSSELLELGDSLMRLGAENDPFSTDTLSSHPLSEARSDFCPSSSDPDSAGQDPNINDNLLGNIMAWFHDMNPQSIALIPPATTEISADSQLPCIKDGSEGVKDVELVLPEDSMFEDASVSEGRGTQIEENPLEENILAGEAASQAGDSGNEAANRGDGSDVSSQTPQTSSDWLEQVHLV
Excerpt: as §1

T4 sequence (Q9UJX4 whole entry): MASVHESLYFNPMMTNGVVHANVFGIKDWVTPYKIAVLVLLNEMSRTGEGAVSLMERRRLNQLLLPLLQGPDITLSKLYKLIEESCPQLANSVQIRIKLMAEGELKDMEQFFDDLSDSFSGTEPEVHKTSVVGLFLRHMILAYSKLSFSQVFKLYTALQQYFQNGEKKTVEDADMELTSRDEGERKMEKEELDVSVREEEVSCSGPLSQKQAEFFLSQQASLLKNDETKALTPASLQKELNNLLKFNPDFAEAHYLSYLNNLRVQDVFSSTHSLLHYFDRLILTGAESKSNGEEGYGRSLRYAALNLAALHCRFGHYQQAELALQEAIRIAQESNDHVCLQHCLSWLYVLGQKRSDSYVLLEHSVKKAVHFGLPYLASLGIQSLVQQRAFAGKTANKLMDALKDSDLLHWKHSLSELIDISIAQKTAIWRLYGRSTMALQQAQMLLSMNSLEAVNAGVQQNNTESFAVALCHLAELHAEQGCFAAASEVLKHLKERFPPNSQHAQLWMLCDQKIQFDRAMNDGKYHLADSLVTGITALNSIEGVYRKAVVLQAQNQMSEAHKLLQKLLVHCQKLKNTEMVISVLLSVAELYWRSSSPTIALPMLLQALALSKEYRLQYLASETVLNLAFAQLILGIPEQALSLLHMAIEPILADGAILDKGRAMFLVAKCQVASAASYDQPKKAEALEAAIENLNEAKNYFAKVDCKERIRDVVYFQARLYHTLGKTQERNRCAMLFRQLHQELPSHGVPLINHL
T1 sequence (Q9BX70 whole entry): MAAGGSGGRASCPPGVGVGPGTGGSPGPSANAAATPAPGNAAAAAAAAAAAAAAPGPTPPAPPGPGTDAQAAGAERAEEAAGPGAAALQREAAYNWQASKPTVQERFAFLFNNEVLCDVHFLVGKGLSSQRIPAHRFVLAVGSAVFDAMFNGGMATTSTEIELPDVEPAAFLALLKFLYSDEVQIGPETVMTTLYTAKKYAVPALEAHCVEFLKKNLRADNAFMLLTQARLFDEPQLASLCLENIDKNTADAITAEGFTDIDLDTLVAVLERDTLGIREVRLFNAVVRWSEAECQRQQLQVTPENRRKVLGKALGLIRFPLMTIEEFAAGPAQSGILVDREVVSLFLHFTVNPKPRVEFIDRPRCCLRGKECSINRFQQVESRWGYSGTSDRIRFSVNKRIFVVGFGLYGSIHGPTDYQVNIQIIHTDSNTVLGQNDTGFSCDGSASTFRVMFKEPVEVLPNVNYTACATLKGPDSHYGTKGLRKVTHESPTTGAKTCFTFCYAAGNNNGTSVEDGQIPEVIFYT
T3 sequence (Q8WXK3 whole entry): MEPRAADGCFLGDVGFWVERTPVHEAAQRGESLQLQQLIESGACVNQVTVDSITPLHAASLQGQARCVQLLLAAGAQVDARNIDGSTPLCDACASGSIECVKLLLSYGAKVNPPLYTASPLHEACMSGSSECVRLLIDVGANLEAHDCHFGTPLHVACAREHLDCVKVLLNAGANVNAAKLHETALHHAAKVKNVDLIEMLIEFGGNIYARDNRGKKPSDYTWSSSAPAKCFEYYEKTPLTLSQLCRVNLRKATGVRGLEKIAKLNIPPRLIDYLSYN

COc1ccc2c(c1)CCCN2C(=O)CCl [KB02]
inhibition at 100 µM (Q9BX70; 100 uM, read-out: KB02_100 uM_percent_inhibition): 4% | KB02_500 uM_percent_inhibition (Q9P203; 500 uM): 17% | inhibition at 500 µM (Q9P203; read-out: KB02_500 uM_percent_inhibition): 12% | inhibition at 500 µM (Q8WXK3; 500 uM, read-out: KB02_500 uM_percent_inhibition): 44%

C=CC(=O)N(c1ccccc1)c1ccc(Br)cc1 [KB05]
inhibition at 100 µM (Q9UJX4; 100 uM, read-out: KB05_100 uM_percent_inhibition): 9% | inhibition at 500 µM (Q9UJX4; 500 uM, read-out: KB05_500 uM_percent_inhibition): 74% | KB05_100 uM_percent_inhibition (Q9P2G1; 100 uM): 22% | inhibition at 100 µM (Q9P2G1; read-out: KB05_100 uM_percent_inhibition): 41%

O=C(CCl)Nc1cc(C(F)(F)F)cc(C(F)(F)F)c1 [KBO3]
KB03_100 uM_percent_inhibition (Q9UJX4; 100 uM): 31% | KB03_500 uM_percent_inhibition (Q9BX70; 500 uM): 40% | KB03_500 uM_percent_inhibition (Q9P203; 500 uM): 13% | KB03_100 uM_percent_inhibition (Q9P2G1; 100 uM): 29% | KB03_100 uM_percent_inhibition (Q8WXK3; 100 uM): 7%
